Legend:
[1] = test system: explanted guts; assay: Cell clustering and collagen 1 remodeling in explanted embryonic guts; conditions: explanted guts of embryonic mice treated with inhibitor; results not shown
Method: (§1) Blebbistatin (Abcam ab120491) and staurosporine (Sigma-Aldrich S5921) were added to cell media at the indicated concentrations by serial dilution from 10 mM DMSO stocks.
(§2) FIG. 21. (A). Gut villi in embryonic mice form in concert with condensation of PDGFR-positive mesenchymal fibroblasts at sites of villus curvature. These clusters are associated with local alignment and compaction of collagen 1 fibrils against the E-cadherin-positive epithelium. […] B) Feather buds in embryonic chickens form from a flat epithelium, and can be visualized with non-specific ethidium bromide staining Chick skin explants at Hamburger-Hamilton (HH) stage 32 form feather buds in culture, but feather bud spacing and height are disrupted in the presence of blebbistatin.

[2] = test system: Chick skin explants; assay: Feather bud formation in chick skin explants in culture; set-up: species or system chickens; conditions: chick skin explants at Hamburger-Hamilton (HH) stage 32 in culture
Method: as §1, §2

[3] = test system: mesenchymal-like carcinoma cells; assay: Efficacy of staurosporine on cells cultured on standard tissue culture plastic (cell viability); type: cell-based; conditions: 20 μM, n=6
Method: as §1

[4] = test system: mesenchymal-like carcinoma cells; assay: Unfolding of pre-folded isotropic reconstituted tissues after ablating actuator cells; type: cell-based
Method: as §1
Curvatures reported for cap reconstituted tissues were generated by radially reslicing and thresholding in ImageJ after manually picking the center of reconstituted tissues to serve as origin points. Radial slices were read into MATLAB and least-squares fitted to circles. Anisotropic curvatures were similarly generated for the indicated cutting planes and folds.

Cc1ccc2c(c1)C(=O)C1(O)CCN(c3ccccc3)C1=N2 (centres unmarked) [blebbistatin]
cell clustering and collagen 1 remodeling [1]: does not occur
feather bud spacing and height [2]: disrupted

CN[C@@H]1C[C@H]2O[C@@](C)([C@@H]1OC)n1c3ccccc3c3c4c(c5c6ccccc6n2c5c31)C(=O)NC4 [staurosporine]
cell death (cell viability) [3]: nearly complete cell death
pre-folded isotropic tissue curvatures (maximum curvature relative to average maximum curvature prior to addition) ([4]; 20 μM, n=4 reconstituted tissues per condition): modest reductions
unfolding of pre-folded tissues ([4]; upon inducing apoptosis of condensing cells using staurosporine (FIG. 13)): less than 40%

— patent publication US10920190B2, “Folding biological tissue via programmed cellular contractility” (The Regents of the University of California, priority 2016, dated 2021)
